Data taken from patent US10961215B2, “N-aryl and N-heteroaryl piperidine derivatives as liver X receptor beta agonists, compositions, and their use” (Merck Sharp & Dohme Corp., priority 2016, dated 2021).

How the values were obtained:
[1] = target: T1, GST tagged LXRbeta LBD (ligand binding domain) (Homo sapiens, UniProt P55055); test: LanthaScreen TR-FRET Liver X Receptor Coactivator Assay, LXR beta-LBD (co-activator recruitment; IP and % Emax relative to T0901317); assay type: biochemical; conditions: for EC50: Inflection Point of co-activator recruitment, LXR beta-LBD, TR-FRET; for Emax: read-out: LXR beta actiivty at max dose (%)
T1 construct: purchased Invitrogen pv4658.pps
T1 sequence (P55055 222-460 limits assumed): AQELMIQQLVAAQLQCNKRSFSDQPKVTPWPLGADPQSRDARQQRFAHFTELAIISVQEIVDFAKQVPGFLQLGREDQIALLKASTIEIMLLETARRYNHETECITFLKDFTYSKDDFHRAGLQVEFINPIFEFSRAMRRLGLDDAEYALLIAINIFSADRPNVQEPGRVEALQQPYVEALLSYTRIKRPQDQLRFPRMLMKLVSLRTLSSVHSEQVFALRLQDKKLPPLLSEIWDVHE
Outline: (§1)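 Potency as inflection point and efficacy as Emax come from compound-driven coactivator peptide recruitment, scaled to T0901317, using a terbium/fluorescein TR-FRET format after room-temperature incubation.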

[2] = target: T2, GST tagged LXRalpha LBD (ligand binding domain) (Homo sapiens, UniProt Q13133); test: LanthaScreen TR-FRET Liver X Receptor Coactivator Assay, LXR alpha-LBD (co-activator recruitment; IP and % Emax relative to T0901317); assay type: biochemical; conditions: for LXR alpha IP (nM) / EC50: Inflection Point of co-activator recruitment, LXR alpha-LBD, TR-FRET; for Emax: read-out: LXR alpha actiivty at max dose (%)
T2 construct: purchased Invitrogen pv4655
T2 sequence (Q13133 209-447 limits assumed): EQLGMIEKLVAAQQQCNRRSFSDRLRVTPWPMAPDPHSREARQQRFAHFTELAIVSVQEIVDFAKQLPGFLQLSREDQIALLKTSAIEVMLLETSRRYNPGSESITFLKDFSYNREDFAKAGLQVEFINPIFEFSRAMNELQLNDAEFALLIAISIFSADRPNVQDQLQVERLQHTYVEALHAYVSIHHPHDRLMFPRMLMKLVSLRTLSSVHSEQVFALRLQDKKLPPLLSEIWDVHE
Outline: as §1

[3] = efficacy at max dose in relation to reference T0901317, LXR beta-LBD
[4] = efficacy at max dose in relation to reference T0901317, LXR alpha-LBD

| SMILES | EC50 [1] [nM] | Emax [1, 3] [%] | LXR alpha IP (nM) [2] | Emax [2, 4] [%] | EC50 [2] [µM] | LXR beta actiivty at max dose (%) [1, 3] [%] | LXR alpha actiivty at max dose (%) [2, 4] [%] |
| --- | --- | --- | --- | --- | --- | --- | --- |
| COc1cccc([C@@](O)(C(=O)NC[C@@H]2C[C@@H]2C2CCN(c3ccc(C(=O)N(C)C)c(Cl)n3)CC2)C(F)(F)F)c1 [Example 15-10, 2-chloro-N,N-dimethyl-6-(4-((1R,2R)-2-(((R)-3,3,3-trifluoro-2-hydroxy-2-(3-methoxyphenyl)propanamido)methyl)cyclopropyl)piperidin-1-yl)nicotinamide] | 442 | 38 | No IP | 4 | – | – | – |
| CN(C)C(=O)c1ccc(N2CCC([C@H]3C[C@H]3CNC(=O)[C@](O)(c3ccccc3)C(F)(F)F)CC2)nc1Cl [Example 15-9] | 393 | 54 | – | 39 | 4.22 | – | – |
| CNC(=O)c1ccc(N2CCC(c3ccc(NC(=O)[C@](O)(c4cccc(OC)c4)C(F)(F)F)cc3)CC2)cc1Cl [Example 10-2, (R)-2-chloro-N-methyl-4-(4-(4-(3,3,3-trifluoro-2-hydroxy-2-(3-methoxyphenyl)propanamido)phenyl)piperidin-1-yl)benzamide] | 3730 | 40 | No IP | 0 | – | – | – |
| CN(C)C(=O)c1ccc(N2CCC([C@H]3C[C@@H](N(C)C(=O)[C@](O)(c4cccc(C5CC5)c4)C(F)(F)F)C3)CC2)nc1Cl [Example 17-2, cis-2-chloro-6-(4-(-3-((R)-2-(3-cyclopropylphenyl)-3,3,3-trifluoro-2-hydroxy-N-methylpropanamido)cyclobutyl)piperidin-1-yl)-N,N-dimethylnicotinamide] | 33 | 43 | No IP | 10 | – | – | – |
| COc1cccc([C@@]2(C(=O)N(C)CCCC3CCN(c4ccc(C(=O)N(C)C)c(Cl)n4)CC3)CCCO2)c1 [Example 1-47, (R)-2-chloro-6-(4-(3-(2-(3-methoxyphenyl)-N-methyltetrahydrofuran-2-carboxamido)propyl)piperidin-1-yl)-N,N-dimethylnicotinamide] | 100 | 56 | No IP | 11 | – | – | – |
| COc1cccc([C@@](O)(C(=O)N(C)CCCC2CCN(c3ccc(C(=O)N(C)C)c(OC)n3)CC2)C(F)(F)F)c1 [Example 2-18, (R)-2-methoxy-N,N-dimethyl-6-(4-(3-(3,3,3-trifluoro-2-hydroxy-2-(3-methoxyphenyl)-N-methylpropanamido)propyl)piperidin-1-yl)nicotinamide] | 523 | 47 | No IP | 0 | – | – | – |
| CN(C)C(=O)c1ccc(N2CCC(CCCN(C)C(=O)[C@](O)(c3ccccc3)C3CCC3)CC2)nc1Cl [Example 1-22, (R)-2-chloro-6-(4-(3-(2-cyclobutyl-2-hydroxy-N-methyl-2-phenylaceetamido)propyl)piperidin-1-yl)-N,N-dimethylnicotinamide] | 64 | 94 | No IP | 9 | – | – | – |
| CN(C)C(=O)c1ccc(N2CCC(CCCNC(=O)OCc3ccccc3)CC2)nc1Cl [Example 5-5, benzyl 3-(1-(6-chloro-5-(dimethylcarbamoyl)pyridin-2-yl)piperidin-4-yl)propyl-carbamate] | 1510 | 39 | No IP | 0 | – | – | – |
| CN(C)C(=O)c1ccc(N2CCC(CCCN(C)C(=O)[C@](O)(c3ccccc3)C(F)(F)F)CC2)nc1Cl [Example 1-26, (R)-2-chloro-N,N-dimethyl-6-(4-(3-(3,3,3-trifluoro-2-hydroxy-N-methyl-2-phenylpropanamido)propyl)piperidin-1-yl)nicotinamide] | – | – | No IP | – | – | 51 | 6 |
| COc1cccc([C@@](O)(C(=O)N(C)CCCC2CCN(c3ccc(C(=O)N(C)C)c(Cl)n3)CC2)C(F)(F)F)c1 [Example 1-9, (R)-2-chloro-N,N-dimethyl-6-(4-(3-(3,3,3-trifluoro-2-hydroxy-2-(3-methoxyphenyl)-N-methylpropanamido)propyl)piperidin-1-yl)nicotinamide] | 46 | 69 | No IP | 4 | – | – | – |
| CNC(=O)c1ccc(N2CCC3(CC2)CC(CN(C)C(=O)[C@](O)(c2cccc(OC)c2)C(F)(F)F)C3)nc1Cl [Example 14-2, 2-chloro-N-methyl-6-(2-(((R)-3,3,3-trifluoro-2-hydroxy-2-(3-methoxyphenyl)-N-methylpropanamido)methyl)-7-azaspiro[3.5]nonan-7-yl)nicotinamide] | 473 | 30 | No IP | 8 | – | – | – |
| CN(C)C(=O)c1ccc(N2CCC(CC3CC(NC(=O)[C@](O)(c4ccccc4)C(F)(F)F)C3)CC2)nc1Cl (stereo partly drawn) [Example 11-2, (R)-2-chloro-N,N-dimethyl-6-(4-((3-(3,3,3-trifluoro-2-hydroxy-2-phenylpropanamido)cyclobutyl)methyl)piperidin-1-yl)nicotinamide] | 273 | 118 | – | 28 | 2.39 | – | – |
| CN(CC[C@@H]1CC12CCN(c1ccc(C(=O)NC3CC3)c(Cl)c1)CC2)C(=O)[C@](O)(c1ccccc1)C(F)(F)F [Example 7-26, 2-chloro-N-cyclopropyl-4-((S)-1-(2-((R)-3,3,3-trifluoro-2-hydroxy-N-methyl-2-phenylpropanamido)ethyl)-6-azaspiro[2.5]octan-6-yl)benzamide] | 1020 | 31 | – | 32 | 6.1 | – | – |
| CNC(=O)c1ccc(N2CCC3(CC2)CC3CCN(C)C(=O)[C@](O)(c2cccc(OC)c2)C(F)(F)F)nc1Cl (stereo in doubt) [Example 7-20, 2-chloro-N-methyl-6-((R)-1-(2-((R)-3,3,3-trifluoro-2-hydroxy-2-(3-methoxyphenyl)-N-methylpropanamido)ethyl)-6-azaspiro[2.5]octan-6-yl)nicotinamide] | 36 | 60 | – | 40 | 1.18 | – | – |
| CCc1cccc([C@@](O)(C(=O)N(C)CCCC2CCN(c3ccc(C(=O)N(C)C)c(Cl)n3)CC2)C(F)(F)F)c1 [Example 1-28, (R)-2-chloro-6-(4-(3-(2-(3-ethylphenyl)-3,3,3-trifluoro-2-hydroxy-N-methylpropanamido)propyl)piperidin-1-yl)-N,N-dimethylnicotinamide] | 67 | 39 | No IP | 0 | – | – | – |
| CC(C)NC(=O)c1ccc(N2CCC3(CC2)C[C@H]3CCN(C)C(=O)[C@](O)(c2ccccc2)C(F)(F)F)cc1Cl [Example 7-28, 2-chloro-N-isopropyl-4-((S)-1-(2-((R)-3,3,3-trifluoro-2-hydroxy-N-methyl-2-phenylpropanamido)ethyl)-6-azaspiro[2.5]octan-6-yl)benzamide] | 1620 | 31 | No IP | 6 | – | – | – |
| CN(C)C(=O)c1ccc(N2CCC([C@@H]3C[C@H]3CN(C)C(=O)[C@@](O)(c3ccccc3)C(F)(F)F)CC2)nc1Cl [Example 15-16, 2-chloro-N,N-dimethyl-6-(4-((1S,2R)-2-(((S)-3,3,3-trifluoro-2-hydroxy-N-methyl-2-phenylpropanamido)methyl)cyclopropyl)piperidin-1-yl)nicotinamide] | 583 | 58 | No IP | 0 | – | – | – |
